We go through six compounds from US11092549B2, “Fluorescent probes for drug permeability in gram negative bacteria” (Saint Louis University, priority 2018, dated 2021).

In general, MIC refers to the lowest concentration that inhibits growth of the organism.

In brackets after ≈: the same amount, converted by molar mass.

The test system of one assay is Δ6-Pore cells. Kind of assay: Minimal inhibitory concentration (MIC) of fluorescent probes. The format is cell-based, P. aeruginosa. An excerpt: For assessing antibacterial activities, compounds will be analyzed against four strains of P. aeruginosa: WT and ΔEfflux (lacking mexAB-OprM, mexCD-OprJ, mexXY), and their hyperporinated variants WT-Pore and ΔEfflux-Pore (FIGS. 2A-C) (Krishnamoorthy et al., 2016 and Krishnamoorthy et al., 2017). Based on minimal inhibitory concentrations (MIC) and growth IC50, compounds will be grouped as affected by efflux or by OM barriers. […] The inventors expect that at least 50% of the compounds in the library will have antibacterial activities in the hyperporinated efflux-deficient ΔEfflux-Pore. The -fold changes in MICs in the four strains will be used to guide selection of the compounds for detailed studies.
The inventors will use a fluorescence-based assay in which a fluorescent probe, a substrate of efflux pumps, reports EPI activities. Exponentially grown cells will be transferred into a defined medium, dispensed into 96-well plates with increasing concentrations of EPIs, and incubated for a pre-determined time. The probe will be added to cells and fluorescence recorded at different time points. Compounds with efflux inhibiting activities will increase the uptake of the probe and as a result increase the probe fluorescence (FIG. 3) (Abdali et al., 2017). […]

In assay [1] the test system is E. coli BW25113 and P. aeruginosa PAO1. Briefly: Screen of NCI Diversity sets for antibacterial and EPI activities, with profiling of actives. The format is cell-based. The source says:
The inventors screened NCI Diversity sets in E. coli BW25113 and P. aeruginosa PAO1 for antibacterial and EPI activities. From ˜2,000 compounds tested, the inventors identified 34 active compounds (Abdali et al., 2017). […] Synthetic procedures for modifying NSC 60339 has been described before (Abdali et al., 2017 and Gamage et al., 2013). Because clinically-important antibiotics are extensively optimized, the inventors have chosen to focus on fluoroquinolones, tetracyclines, oxazolidinones, phenicols and macrolides/ketolides representatives that are known to penetrate through both the LPS-phospholipid bilayer and porins of the OM and include both broad and narrow spectrum antibiotics.

The subject of assay [2] is E. coli strains BW25113, ΔEfflux, WT-Pore and ΔEfflux-Pore. Kind of assay: Fluorescence-based intracellular uptake of compounds in efflux-proficient, efflux-deficient and hyperporinated cells (FIG. 3). The conditions noted are these: when the cell envelope is compromised, excitation 335 nm. How it is done: For Hoechst or compound uptake experiments, overnight grown cells will be re-inoculated into 30 ml LB broth and grown until OD600 of 1. The cells will then pelleted by centrifugation for 15 min at room temperature and washed once in HMG buffer. The pellet will be resuspended in HMG buffer to OD600 of 2.0 and kept at room temperature during the course of the experiment. For the efflux inhibition or uptake kinetics, 100 μl of Hoechst or compound solution in HMG buffer with and without increasing concentrations of inhibitors at twice the concentrations indicated will be added into a black F-bottom non-binding 96-well plate. Fluorescence of Hoechst or compounds will be followed at λex=355 nm and λem=450 nm. To this, 100 μl of cells at OD600 of 2.0 was injected, shaken for 6 sec and the fluorescence of Hoechst will be monitored continuously for up to 10 min.
The inventors will use a fluorescence-based assay in which a fluorescent probe, a substrate of efflux pumps, reports EPI activities. Exponentially grown cells will be transferred into a defined medium, dispensed into 96-well plates with increasing concentrations of EPIs, and incubated for a pre-determined time. The probe will be added to cells and fluorescence recorded at different time points. Compounds with efflux inhibiting activities will increase the uptake of the probe and as a result increase the probe fluorescence (FIG. 3) (Abdali et al., 2017). The reverse kinetic curves, in which the concentration of the compound is fixed while the probe concentration varies, will be also collected. Detailed quantification of the kinetic data will be performed using two probes: a DNA dye Hoechst 33342 (HT) (Eicher et al., 2012; Nakashima et al., 2011 and Richmond et al., 2013) and a novel SLU-417 probe that were synthesized during a focused synthetic effort (Haynes et al., 2017). HT is a topoisomerase inhibitor with the MIC 2 μM in Δ6-Pore cells. In contrast, SLU-417 is relatively inert with MIC≥50 μM, which should reduce possible non-specific effect during drug uptake measurements.
Experiments were carried out in four E. coli strains, BW25113, a wild type strain with efflux pumps, ΔEfflux, a cell line in which the efflux pumps have been inactivated by removal of tolC gene and their hyperporinated variants WT-Pore and ΔEfflux-Pore. Four compounds were tested in these cell lines which show increased fluorescence intensity in cells in which the efflux pumps have been removed (FIG. 3).

With `CCOc1ccc(-c2nc3ccc(-c4nc5ccc(N6CCN(C)CC6)cc5[nH]4)cc3[nH]2)cc1` [HT, Hoechst 33342, reference compound], the MIC against Δ6-Pore cells (Δ6-Pore cells) was 2 µM (≈ 0.905 µg/mL). For `O=C(Nc1ccc(C2=NCCN2)cc1)c1ccc(C(=O)Nc2ccc(C3=NCCN3)cc2)c(Cl)c1` [NSC 60339], in assay [1], the “antibacterial and anti-MFP (Membrane Fusion Protein) activities” value is “have both antibacterial and anti-MFP”; the “substrate of efflux pumps” value is listed as “modest substrate of efflux pumps”.

Compound `CC(C)c1ccc(/C=C/C(=O)Nc2ccc(C3=NCCN3)cc2)cc1` [SLU-417] came in with a minimum inhibitory concentration (MIC) in the assay on Δ6-Pore cells (Pseudomonas aeruginosa) of at least 50 µM. Moreover, the intracellular uptake entry in assay [2] was “increases”.

For the compound `O=C(Nc1ccc(C2=NCCN2)cc1)c1ccc(-c2cc(Cl)cc(Cl)c2)s1` [SLU-446], the intracellular uptake result in assay [2] is “increases”. Regarding `COc1ccc(/C=C/C(=O)Nc2ccc(C3=NCCN3)cc2)cc1` [SLU-448], in assay [2], the intracellular uptake result is given as “increases”. As for `O=C(Nc1ccc(C2=NCCN2)cc1)c1cc2cc(Cl)ccc2o1` [SLU-843], the intracellular uptake result in assay [2] is on record as “increases”.
